# Test results reported in patent publication US20080200474A1, “NOVEL FLUNARIZINE SALT FORMS AND METHODS OF MAKING AND USING THE SAME” (TRANSFORM PHARMACEUTICALS, INC., priority 2007, published 2008).
# Where a name gives a salt, the structure may show the parent alone. Read-outs that look alike come from different tables or passages of the source.
# Tests used:
# [1] = format: physicochemical
# From the text: Dynamic vapor sorption (DVS) analysis was completed on flunarizine benzoate from about 0 to about 95 percent relative humidity at about 25 degrees C. (See FIG. 5). […] This is characteristic of a nonhygroscopic material.
# Dynamic vapor sorption (DVS) analysis was completed on flunarizine fumarate from about 0 to about 95 percent relative humidity at about 25 degrees C. (See FIG. 9). […] This is characteristic of a nonhygroscopic material.
# Flunarizine dihydrochloride is hygroscopic. The dihydrochloride salt rapidly adsorbs water (greater than 7 percent change in mass) at relative humidity levels above about 60 percent. The release of the adsorbed water is difficult upon desorption. In comparison, the flunarizine benzoate salt of the present invention adsorbs relatively little water (less than 1 percent change in mass) at relative humidity levels up to about 95 percent.
# [2] = Excipient compatibility, solid mixes sucrose:crospovidone:flunarizine salt 94:5:1 stored at 60 degrees C.; format: physicochemical; settings: sucrose:crospovidone:salt 94:5:1 (weight %), wetted and dried, seal crimped, stored at 60 degrees C. for 2 weeks
# Protocol: Two solid mixes, one containing sucrose:crospovidone:flunarizine dihydrochloride 94:5:1 (weight %), and the other containing sucrose:crospovidone:flunarizine benzoate 94:5:1 (weight %), were prepared in mortars, transferred to separate vials and a small amount of water was added until a very viscous syrup was formed. The samples were left to air dry at room temperature for two days followed by one day under vacuum at 40 degrees C. After the processing was finished, pictures of the samples were taken. Vials with identical content to the ones pictured were seal crimped and stored at 60 degrees C. for 2 weeks. After this period, their pictures were taken.
Compound,stability over relative humidity (DVS) [1],hygroscopicity (DVS) ([1]; about 25 degrees C.),"water adsorption, change in mass ([1]; relative humidity levels up to about 95 percent)",degradation in excipient mix (comparison of images) [2],"release of the adsorbed water upon desorption ([1]; DVS desorption, about 25 degrees C.)","water adsorption, change in mass ([1]; relative humidity levels above about 60 percent, about 25 degrees C.)"
"Fc1ccc(C(c2ccc(F)cc2)N2CCN(CC=Cc3ccccc3)CC2)cc1.O=C(O)c1ccccc1 [flunarizine benzoate, 1-cinnamyl-4-(di-p-fluorobenzhydryl)piperazine benzoate]",stable from about 0% to about 95% relative humidity,nonhygroscopic,less than 1%,substantially more degradation had occurred in the mixes containing flunarizine dihydrochloride than those containing flunarizine benzoate,–,–
1-cinnamyl-4-(di-p-fluorobenzhydryl)piperazine fumarate [flunarizine fumarate],stable from about 0% to about 95% relative humidity,nonhygroscopic,–,–,–,–
"Fc1ccc(C(c2ccc(F)cc2)N2CCN(C/C=C/c3ccccc3)CC2)cc1 [flunarizine dihydrochloride, reference compound]",–,hygroscopic,–,substantially more degradation,difficult,greater than 7%
